In patent publication US20210015942A1, “ANTIBODY PROTAC CONJUGATES” (Development Center for Biotechnology, priority 2018, published 2021):

Tests used:
[1] = test system: BRD2, BRD3, and BRD4; conditions: read-out: EC50, inhibitor of BRD2, BRD3, and BRD4; cited from earlier work
[2] = target: BRD4 (Homo sapiens, UniProt O60885); conditions: BT-474 cells (HER2-positive), 24 hours treatment, various concentrations up to 1 μM, western blot

Which EC50 [1] does the source give for `Cc1sc2c(c1C)C(c1ccc(Cl)cc1)=N[C@@H](CC(=O)Nc1ccc(O)cc1)c1nnc(C)n1-2` [OTX015] here?
The EC50 was 10 to 19 nM.

With `Cc1sc2c(c1C)C(c1ccc(Cl)cc1)=N[C@@H](CC(=O)Nc1ccc(OCCOCCN(CCOCCNc3cccc4c3C(=O)N(C3CCC(=O)NC3=O)C4=O)C(=O)OCc3ccc(NC(=O)[C@H](CCCNC(N)=O)NC(=O)[C@@H](NC(=O)CCCCCN4C(=O)C=CC4=O)C(C)C)cc3)cc1)c1nnc(C)n1-2` (stereo partly drawn) [Compound 7] as the compound, how does the BRD4 protein degradation [2] read?
Its BRD4 protein degradation is “cannot degrade BRD4 protein”.

With `Cc1sc2c(c1C)C(c1ccc(Cl)cc1)=N[C@@H](CC(=O)Nc1ccc(OCCOCCNCCOCCNc3cccc4c3C(=O)N(C3CCC(=O)NC3=O)C4=O)cc1)c1nnc(C)n1-2` (stereo partly drawn) [Compound 5] as the compound, how does the BRD4 protein degradation [2] read?
The BRD4 protein degradation was “as effective as ARV-825”.
